“Also recorded” adds a separate entry of the source.

What all share (format): cell-based, mouse
Experiment [1] concerns dendritic cells. As to the kind of experiment: Mapping assay of polymerized actin in migrating Lifeact dendritic cells. The following applies: immature DCs. The method, then:
(§1) Mouse bone-marrow cells were cultured during 10-12 days in medium supplemented with fetal calf serum and granulocyte-macrophage colony stimulating factor-containing supernatant obtained from transfected J558 cells, as previously described (Faure-Andre et al, 2008, Science, 322, 1705-10). For migration or mapping assays (see below), cells at day 10-12 were activated with 100 ng/ml of LPS (mature cells, LPS DCs), for 30 min, then rinsed 3 times with complete media and put into the channels. Counterpart immature cells for these experiments are treated in the same condition, but in absence of LPS.
Lifeact dendritic cells (nucleofected or not) were incubated for 30 min in […] Hoechst-containing medium, washed 3 times and 10^5 cells per well were loaded and incubated from 4 h to overnight to allow their entry into micro-channels (section was 8×5 μm). After entry, cells were imaged at least for 16 hours on an epifluorescence video-microscope Nikon TiE microscope equipped with a cooled CCD camera (HQ2, Photometrics) with a 20× objective. Images were acquired every 3 minutes. […] Furthermore for each cell, spatial coordinates of the nuclei were measured and ratio between the mean actin density at the front and at the back of the nucleus was computed. […]

The subject of experiment [2] is dendritic cells. As to the kind of experiment: Migration assay in micro-channels. As to the method:
as §1
Micro-channels were prepared as previously described (Faure-Andre et al, 2008, Science, 322, 1705-10; Heuze et al., 2011, Methods Mol Biol., 769, 415-434). They were incubated with 10 μg/ml fibronectin alone for 1 h and washed with PBS.
For migration assay, cells were loaded in micro-channels (section 5×5 μm) and imaged at least for 16 hours on an epifluorescence video-microscope Nikon TiE microscope equipped with a cooled CCD camera (HQ2, Photometrics) with a 10× objective, one transmission phase image taken every 2 minutes. Kymograph extraction and instantaneous velocity analysis were performed using a homemade program as described previously (Faure-Andre et al, 2008, Science, 322, 1705-10).

In experiment [3] the test system is dendritic cells. As to the kind of experiment: Flow cytometry analysis of CD86 levels (DC activation/maturation). The following applies: immature and LPS-matured cells, 5 or 10 μM. The method, then: The following reagents were used for imaging experiments: WGA AlexaFluor-647 and Hoechst (both from Life Technologies). Micro-channels were coated with Fibronectin (Sigma). Cell activation was performed with LPS (Sigma). For flow cytometry the following antibodies were used: anti-CD86 (GL1 clone, 553692) and a Rat IgG2a,κ isotype control (553930) from BD Biosciences.
as §1
Cells were resuspended in staining buffer (PBS BSA 2%) and stained 30 min at 4° C. with the indicated antibodies. Cells were then washed 3 times and resuspended in staining buffer. All Facs experiments were carried on an Accuri flow cytometer (BD Biosciences).
A general note: A flow cytometer gives signals particle by particle.

With MLSA1, the “actin polymerization at the cell center/cell rear” value in experiment [1] is given as “enriched at their rear; also recorded: partially induces”. Further, the “fraction of time spent by DCs with actin at their front” value in experiment [1] (compared to immature control DCs) is “decreased”. In addition, in experiment [2] (immature DCs), the cell velocity entry was “increases” and the persistence entry is “increases”. In experiment [2] (mature cells (LPS DCs)), the cell velocity result was “does not further increase” and the persistence entry was “does not further increase”. Also, the “CD86 levels (cell activation / LPS-induced maturation)” value in experiment [3] is listed as “No effect; also recorded: does not activate immature cells, nor prevent the LPS-induced maturation”.

(Values after patent US10100313B2, “Use of Mcoln-1 modulators to regulate cell migration” (INSTITUT CURIE, priority 2014, dated 2018).)
